Assay results: patent US20050250677A1, “Glycopeptide antibiotic derivatives” (priority 2002, published 2005)
Where two headings read alike, the source gives them in different places.

Assays:
VZV (wild-type strains) = assay: Anti-VZV assay (wild-type strains): virus-induced cytopathicity in HEL cell cultures; assay type: cell-based, varicella-zoster virus; conditions: for EC50: HEL cell cultures
murine leukemia L1210 = assay: Cytostatic activity assay, L1210 cells; assay type: cell-based; conditions: read-out: IC50 L1210 (compound concentration required to inhibit tumor cell proliferation by 50%)
human lymphocyte CEM = assay: Cytostatic activity assay, CEM cells; assay type: cell-based; conditions: read-out: IC50 CEM (compound concentration required to inhibit tumor cell proliferation by 50%)
HIV-1 (IIIB) = assay: Inhibition of HIV-1 (IIIB)-induced cytopathicity (giant cell formation) in CEM cells; assay type: cell-based; conditions: read-out: EC50 HIV-1 (concentration required to inhibit HIV-induced giant cell formation by 50%); HIV-1, CEM cell cultures
Protocol: (§1) A variety of glycopeptide antibiotic derivatives of vancomycin, eremomycin and teicoplanin including their aglycon derivatives were evaluated for their inhibitory activity against HIV-1 (IIIB) and HIV-2(ROD) in CEM cell cultures.

HEL cells [1] = conditions: anti-VZV table
HEL cells [2] = conditions: read-out: CC50 (HEL); HEL cells; anti-VZV table
[3] = tested on: human lymphocyte Molt4/clone 8; assay: Cytostatic activity assay, Molt4/clone 8 cells; assay type: cell-based; conditions: read-out: IC50 Molt4/C8 (compound concentration required to inhibit tumor cell proliferation by 50%)
HIV-2(ROD) = assay: Inhibition of HIV-2 (ROD)-induced cytopathicity (giant cell formation) in CEM cells; assay type: cell-based; conditions: read-out: EC50 HIV-2 (concentration required to inhibit HIV-induced giant cell formation by 50%); HIV-2, CEM cell cultures
Protocol: as §1

FCK cells = conditions: read-out: CC50 FCK; FCK cells
FCV = assay: Feline corona virus assay in Feline Crandel kidney cells (MTS); assay type: cell-based; conditions: for EC50: FCV in FCK cells, read-out: EC50 FCV
Protocol: Feline Crandel kidney cells were seeded in 96-well microtiter plates at 24,000 cells/well. Then, 24 hrs later, an appropriate inoculum of FCV is added together with 5-fold dilutions of the test compounds. After 4 days, a MTS/PMS solution was added to each well. Following a 90 min incubation period at 37° C., the optical density of the wells was read at 498 nm in a microplate reader.

[4] = VZV strain OKA, read-out: EC50 VZV (OKA)
[5] = VZV strain YS, read-out: EC50 VZV (YS)

Structure (SMILES) | activity against VZV (VZV (wild-type strains)) | EC50 (VZV (wild-type strains); [4]) | EC50 (VZV (wild-type strains); [5]) | IC50 (murine leukemia L1210) | IC50 (human lymphocyte CEM) | EC50 (HIV-1 (IIIB)) | MTC (HEL) (HEL cells [1]) | CC50 (HEL cells [2]) | IC50 [3] | EC50 (HIV-2(ROD)) | CC50 (FCK cells) | activity against FCV (FCV) | EC50 (FCV)
CNC(=O)C1NC(=O)C2NC(=O)C(NC(=O)C3NC(=O)C(CC(N)=O)NC(=O)C(NC(=O)C(CC(C)C)NC)C(O)c4ccc(c(Cl)c4)Oc4cc3cc(c4O)Oc3ccc(cc3)C2O)c2ccc(O)c(c2)-c2c1cc(O)c(CN1CCN(Cc3ccc(-c4ccccc4)cc3)CC1)c2O (stereo not drawn) [Compound 8] | pronounced activity | 2.3 µM | 1.5 µM | > 100 µM | > 100 µM | 4 ± 1.7 µM | ≧20 μM | > 50 µM | > 100 µM | 5.5 ± 0.7 µM | – | – | –
CCCCc1ccc(CNC2C(Oc3c4cc5cc3Oc3ccc(cc3Cl)C(O)C3NC(=O)C(NC(=O)C5NC(=O)C5NC(=O)C(Cc6ccc(cc6)O4)NC(=O)C(NC)c4ccc(O)c(c4)Oc4cc(O)c(Cl)c5c4)c4ccc(O)c(c4)-c4c(cc(O)c(CN5CCN(Cc6ccc(-c7ccccc7)cc6)CC5)c4O)C(C(=O)NCCCN(C)C)NC3=O)OC(C(=O)NCCCN(C)C)C(O)C2O)cc1 (stereo not drawn) [Compound 13] | – | – | – | 25 ± 0.7 µM | 212 ± 54 µM | 3.5 ± 2.1 µM | – | – | 35 ± 6.1 µM | 20 µM | 30 µM | pronounced activity | 5.9 µM
CCCCCCCCCCNC(=O)C(N)CCCCNCc1c(O)cc2c(c1O)-c1cc(ccc1O)C1NC(=O)C3NC(=O)C4NC(=O)C(Cc5ccc(c(Cl)c5)Oc5cc3cc(c5O)Oc3ccc(cc3Cl)C(O)C(NC1=O)C(=O)NC2C(=O)NCCCN(C)C)NC(=O)C(N)c1ccc(O)c(c1)Oc1cc(O)cc4c1 (stereo not drawn) [Compound 16] | – | 2.5 µM | 2.4 µM | 19 ± 5 µM | 389 ± 99 µM | 3.5 ± 0.7 µM | ≧5-50 μM | 137 µM | 76 ± 8 µM | 5.5 ± 2.1 µM | – | – | –
NC1C(=O)NC2Cc3ccc(c(Cl)c3)Oc3cc4cc(c3O)Oc3ccc(cc3Cl)C(O)C3NC(=O)C(NC(=O)C4NC(=O)C(NC2=O)c2cc(O)cc(c2)Oc2cc1ccc2O)c1ccc(O)c(c1)-c1c(cc(O)c(CN2CCN(N=Cc4ccc(Cl)cc4)CC2)c1O)C(C(=O)O)NC3=O (stereo not drawn) [Compound 17] | – | 4.1 µM | 4.2 µM | 97 ± 4.3 µM | > 100 µM | 8 ± 2.8 µM | ≧20-200 μM | > 50 µM | > 100 µM | 22 ± 3.5 µM | – | – | –
CCCCCCCCCCNC(=O)C1NC(=O)C2NC(=O)C(NC(=O)C3NC(=O)C4NC(=O)C(Cc5ccc(c(Cl)c5)Oc5cc3cc(c5O)Oc3ccc(cc3Cl)C2O)NC(=O)C(N)c2ccc(O)c(c2)Oc2cc(O)cc4c2)c2ccc(O)c(c2)-c2c1cc(O)c(CNCCCN(C)C)c2O (stereo not drawn) [Compound 20] | – | 2 µM | 2.3 µM | 17 ± 9 µM | 53 ± 11 µM | 4.5 ± 0.7 µM | ≧5-20 μM | 169 µM | 58 ± 12 µM | 44 ± 1.4 µM | – | – | –
CCCCCCCCCCNCc1c(O)cc2c(c1O)-c1cc(ccc1O)C1NC(=O)C3NC(=O)C4NC(=O)C(Cc5ccc(c(Cl)c5)Oc5cc3cc(c5O)Oc3ccc(cc3Cl)C(O)C(NC1=O)C(=O)NC2C(=O)NC)NC(=O)C(NC(=O)C(N)CCCCN)c1ccc(O)c(c1)Oc1cc(O)cc4c1 (stereo not drawn) [Compound 24] | – | 1.2 µM | 1.9 µM | 12 ± 6 µM | 46 ± 8 µM | 4 µM | ≧5 μM | 87 µM | 41 ± 8 µM | 6 µM | – | – | –
CCCCCCCCCCCNC1C(=O)NC2Cc3ccc(c(Cl)c3)Oc3cc4cc(c3O)Oc3ccc(cc3Cl)C(O)C3NC(=O)C(NC(=O)C4NC(=O)C(NC2=O)c2cc(O)cc(c2)Oc2cc1ccc2O)c1ccc(O)c(c1)-c1c(O)cc(O)cc1C(C(=O)NCCCN(C)C)NC3=O (stereo not drawn) [Compound 32] | – | ≥ 5 µM | 2.3 µM | 23 ± 7 µM | 90 ± 27 µM | 5.5 ± 2.1 µM | 20 µM | 30 µM | 35 ± 2 µM | 12.5 ± 3.5 µM | – | – | –
CCCCCCCCCC[N+](C)(C)CCCNCc1c(O)cc2c(c1O)-c1cc(ccc1O)C1NC(=O)C3NC(=O)C4NC(=O)C(Cc5ccc(c(Cl)c5)Oc5cc3cc(c5O)Oc3ccc(cc3Cl)C(O)C(NC1=O)C(=O)NC2C(=O)O)NC(=O)C(N)c1ccc(O)c(c1)Oc1cc(O)cc4c1 (stereo not drawn) [Compound 33] | – | ≥ 5 µM | 2.4 µM | 51 ± 26 µM | 74 ± 5 µM | 2.2 µM | 5 to 50 µM | ≥ 200 µM | 65 ± 1 µM | 7.5 ± 0.7 µM | – | – | –
CCCCCCCCCC[N+](C)(C)CCCNCc1c(O)cc2c(c1O)-c1cc(ccc1O)C1NC(=O)C3NC(=O)C4NC(=O)C(Cc5ccc(c(Cl)c5)Oc5cc3cc(c5O)Oc3ccc(cc3Cl)C(O)C(NC1=O)C(=O)NC2C(=O)NCCO)NC(=O)C(N)c1ccc(O)c(c1)Oc1cc(O)cc4c1 (stereo not drawn) [Compound 36] | – | ≥ 5 µM | 1.9 µM | 12 ± 0.1 µM | ≥ 100 µM | 2.1 ± 0.14 µM | ≧20-50 μM | > 200 µM | 73 ± 34 µM | 4.2 ± 2.47 µM | – | – | –
CCCCc1ccc(CNCc2c(O)cc3c(c2O)-c2cc(ccc2O)C2NC(=O)C4NC(=O)C5NC(=O)C(Cc6ccc(c(Cl)c6)Oc6cc4cc(c6O)Oc4ccc(cc4Cl)C(O)C(NC2=O)C(=O)NC3C(=O)NC)NC(=O)C(NC(=O)OC(C)(C)C)c2ccc(O)c(c2)Oc2cc(O)cc5c2)cc1 (stereo not drawn) [Compound 47] | – | – | – | 70 ± 23 µM | > 100 µM | 6 ± 1 µM | – | – | > 100 µM | 12 ± 5.2 µM | > 50 µM | – | 16 µM
NC1C(=O)NC2Cc3ccc(c(Cl)c3)Oc3cc4cc(c3O)Oc3ccc(cc3Cl)C(O)C3NC(=O)C(NC(=O)C4NC(=O)C(NC2=O)c2cc(O)cc(c2)Oc2cc1ccc2O)c1ccc(O)c(c1)-c1c(cc(O)c(CNC2C4CC5CC(C4)CC2C5)c1O)C(C(=O)NC1C2CC4CC(C2)CC1C4)NC3=O (stereo not drawn) [Compound 52] | – | – | – | 202 ± 68 µM | > 250 µM | 2.5 ± 0.7 µM | – | – | > 250 µM | 3.5 ± 2.1 µM | > 50 µM | – | 14 µM
CCCCCCCCCCCCCCCCCCNCc1c(O)cc2c(c1O)-c1cc(ccc1O)C1NC(=O)C3NC(=O)C(CC(N)=O)NC(=O)C(NC(=O)C(CC(C)C)NC)C(O)c4ccc(c(Cl)c4)Oc4cc3cc(c4OC3OC(CO)C(O)C(O)C3OC3CC(C)(N)C(O)C(C)O3)Oc3ccc(cc3)C(OC3CC(C)(N)C(O)C(C)O3)C(NC1=O)C(=O)NC2C(=O)O (stereo not drawn) [Compound 63] | – | – | – | – | – | – | – | – | – | – | 15 µM | active | 3.4 µM
CNC(CC(C)C)C(=O)NC1C(=O)NC(CC(N)=O)C(=O)NC2C(=O)NC3C(=O)NC(C(=O)NC(C(=O)NCC45CC6CC(CC(C6)C4)C5)c4cc(O)cc(O)c4-c4cc3ccc4O)C(O)c3ccc(cc3)Oc3cc2cc(c3O)Oc2ccc(cc2Cl)C1O (stereo not drawn) [Compound 99] | – | – | – | 94 ± 15 µM | 148 ± 3 µM | 1.6 ± 0.36 µM | – | – | 126 ± 11 µM | 7 µM | ≥ 100 µM | pronounced activity | 23 µM
CNC(CC(C)C)C(=O)NC1C(=O)NC(CC(N)=O)C(=O)NC2C(=O)NC3C(=O)NC(C(=O)NC(C(=O)NCc4ccc(F)cc4)c4cc(O)cc(O)c4-c4cc3ccc4O)C(O)c3ccc(cc3)Oc3cc2cc(c3O)Oc2ccc(cc2Cl)C1O (stereo not drawn) [Compound 100] | – | – | – | > 250 µM | > 250 µM | 41.7 ± 20.2 µM | – | – | > 250 µM | > 125 µM | > 100 µM | pronounced activity | 20 µM
NC(=O)CC1NC(=O)C(N)C(O)c2ccc(c(Cl)c2)Oc2cc3cc(c2O)Oc2ccc(cc2)C(O)C2NC(=O)C(NC(=O)C3NC1=O)c1ccc(O)c(c1)-c1c(O)cc(O)cc1C(C(=O)NCc1ccc(F)cc1)NC2=O (stereo not drawn) [Compound 106] | – | – | – | – | – | 27 µM | – | – | – | 30 µM | > 300 µM | – | 74 µM
NC(=O)CC1NC(=O)C(N)C(O)c2ccc(c(Cl)c2)Oc2cc3cc(c2O)Oc2ccc(cc2)C(O)C2NC(=O)C(NC(=O)C3NC1=O)c1ccc(O)c(c1)-c1c(O)cc(O)cc1C(C(=O)NCC13CC4CC(CC(C4)C1)C3)NC2=O (stereo not drawn) [Compound 107] | – | – | – | – | – | 5 µM | – | – | – | 3.5 µM | > 300 µM | – | 40 µM
NC(=O)CC1NC(=O)C(N)C(O)c2ccc(c(Cl)c2)Oc2cc3cc(c2O)Oc2ccc(cc2)C(O)C2NC(=O)C(NC(=O)C3NC1=O)c1ccc(O)c(c1)-c1c(O)cc(O)cc1C(C(=O)N1CCC3CCCCC3C1)NC2=O (stereo not drawn) [Compound 108] | – | – | – | – | – | 2.8 µM | – | – | – | 2 µM | > 300 µM | – | 81 µM
